T1: HSP20, wild type, transfected into HEKB2 / HEK293 cells (human, UniProt O14558 1-160)
T1 construct: Expressed from pcDNA6.2-Hsp20 (Gateway cloning into pcDNA6.2/V5-DEST); Immunopurified from cell lysates; also called HSP20 wt
T1 sequence: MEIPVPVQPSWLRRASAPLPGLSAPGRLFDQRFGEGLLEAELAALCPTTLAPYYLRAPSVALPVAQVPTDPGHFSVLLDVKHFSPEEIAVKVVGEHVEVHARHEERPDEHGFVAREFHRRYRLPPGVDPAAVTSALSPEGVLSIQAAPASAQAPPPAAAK

B1: GST-PDE4D5 (enzyme)
chain: MAQQTSPDTLTVPEVDNPHCPNPWLNEDLVKSLRENLLQHEKSKTARKSVSPKLSPVISPRNSPRLLRRMLLSSNIPKQRRFTVAHTCFDVDNGTSAGRSPLDPMTSPGSGLILQANFVHSQRRESFLYRSDSDYDLSPKSMSRNSSIASDIHGDDLIVTPFAQVLASLRTVRNNFAALTNLQDRAPSKRSPMCNQPSINKATITEEAYQKLASETLEELDWCLDQLETLQTRHSVSEMASNKFKRMLNRELTHLSEMSRSGNQVSEFISNTFLDKQHEVEIPSPTQKEKEKKKRPMSQISGVKKLMHSSSLTNSSIPRFGVKTEQEDVLAKELEDVNKWGLHVFRIAELSGNRPLTVIMHTIFQERDLLKTFKIPVDTLITYLMTLEDHYHADVAYHNNIHAADVVQSTHVLLSTPALEAVFTDLEILAAIFASAIHDVDHPGVSNQFLINTNSELALMYNDSSVLENHHLAVGFKLLQEENCDIFQNLTKKQRQSLRKMVIDIVLATDMSKHMNLLADLKTMVETKKVTSSGVLLLDNYSDRIQVLQNMVHCADLSNPTKPLQLYRQWTDRIMEEFFRQGDRERERGMEISPMCDKHNASVEKSQVGFIDYIVHPLWETWADLVHPDAQDILDTLEDNREWYQSTIPQSPSPAPDDPEEGRQGQTEKFQFELTLEEDGESDTEKDSGSQVEEDTSCSDSKTLCTQDSESTEIPLDEQVEEEAVGEEEESQPEACVIDDRSPDT
notes: Expressed in E. coli and purified; Printed both GST-PDE4D5 and PDE4D5-GST; also called PDE4D5-GST; not shown: glutathione-S-transferase (GST) tag
B2: PDE4D5 (transfected into HEKB2 / HEK293 cells) (enzyme)
chain: B1 chain
B3: His-HSP20 (purified recombinant His-tagged HSP20) (other)
chain: T1 sequence
notes: Expressed in E. coli BL21 from pET28c and purified on nickel; also called HSP20-His; HSP20-6His; not shown: His tag from the pET28c vector

Legend:
PDE4 = PDE4 activity associated with HSP20 immunoprecipitates from cardiac myocytes; assay type: cell-based, rat; conditions: isoprenaline 1 μM
Procedure: FIG. 3. HSP20 forms a complex with members of the PDE4 family of phosphodiesterases. A (upper panel), Immunopurification (Ips) of HSP20 from cellular lysates isolated from myocytes following treatment with Isoprenaline (1 μM) were blotted for the presence of PDE4D isoforms. B, (lower panel) The PDE4 activity associated with HSP20 Ips was determined. C, Members of the PDE4D sub-family of PDE4s were co-expressed with HSP20 in HEKB2 cells. HSP20 Ips were probed for PDE4D isoforms.
PDE activity was measured using a radioactive cAMP hydrolysis assay that has been described previously^56. [8-^3H]adenosine cyclic-3,5′-mono-phosphate was sourced from Amersham Biosciences (Little Chalfont, U.K.) and cyclic-3′,5′-mono-phosphate from Sigma.
Immunopurification (Ips) of HSP20 from cardiac myocytes were screened for associating PDE4 by Western blotting analysis and cAMP PDE assay (FIG. 3A).

[1] = test system: neonatal cardiac myocytes; experiment: Cardiac myocyte cell size, manual cross-sectional area; assay type: cell-based, rat; conditions: 24 hour isoprenaline 10 μM, 30 min pre-treatment with 10 μM peptide
Procedure: (§1) FIG. 7. Peptide disruption of the PDE4D-HSP20 complex attenuates the hypertrophic response triggered by constant […]-agonist treatment. A, Upper panel. The area covered by isolated cardiac myocytes was used as a measure of cell size. Lower panel, Graphical depiction of the mean areas (N=100) of cells following 24 hours of indicated treatments. B, impedance measurements were used to calculate continuous normalised cell index using exCELLigence technology Normalised mean (n=4) cell index after 24 hours of indicated treatments.
Cardiomyocytes were plated out on gelatin (Sigma) pre-coated 6-well plates and placed in an incubator at 37° C. and an atmosphere of 5% CO2. After 24 h the cardiomyocytes were cultured in a serum-free condition for 48 h before experiments. The cardiomyocytes were then challenged for 24 h with either 10 μM isoprenaline alone or isoprenaline following a 30 min pre-treatment with 10 μM rolipram, 10 μM bs906 or 10 μM control peptide. Thereafter, cell size was determined on phase-contrast microscope. […] from randomly selected microscope images (400×) were captured digitally and analysed. Cross-sectional area was determined by the following formula: cross-sectional area=(radius)^2×π. Values are expressed as means±SE of five separate culture preparations. A f-test was performed to compare the two groups, and the P values are indicated.

[2] = test system: Phospho-Ser16 HSP20 in neonatal cardiac myocytes; experiment: Ser16 phosphorylation of endogenous HSP20 in neonatal cardiac myocytes (Western blot); assay type: cell-based, rat; conditions: neonatal cardiomyocytes, isoprenaline challenge
Procedure: FIG. 2. The phosphorylation of HSP20 at Ser16 is modulated by PDE4 activity in cardiac myocytes. A, Neonatal cardiac myocytes were treated with isoprenaline for indicated times with or without pre-treatment with the PDE4-specific inhibitor, rolipram. Cellular lysates were blotted for HSP20 and Phospho-Ser16 HSP20. B, Quantifications of data from FIG. 2A (n=3). * Denotes significance at a level p<0.05 over iso treatment.
(§2) HEK293B2 cells are a stable cell line overexpressing the GFP-tagged β2AR were cultured as previously described^48. HEK293B2 cells were transiently transfected with wild type HSP20 or a phosphorylation defective HSP20 (S16A) or a phosphorylation mimic HSP20 (S16D). Neonatal cardiac myocytes were prepared and cultured as previously described^30. Cell lysis, immunopurification and western blotting was done as described before by us in some detail^48. Briefly, HEK 293 cells were transiently transfected with wild-type HSP20 by using Polyfect Transfection Reagent (Qiagen). Transfected HEK 293 cells were treated with 10 μM bs906 or 10 μM control peptide for 0, 15, 30, 60 and 120 min. Control and treated transfected HEK 293 cells were then washed thrice with ice cold PBS (phosphate buffered saline) before cellular lysates were prepared. Cellular lysates were prepared in lysis buffer containing 25 mM Hepes, pH 7.5, 2.5 mM EDTA, 50 mM NaCl, 50 mM NaF, […], 10% (v/v) glycerol, 1% (v/v) Triton X-100 and Complete™ EDTA-free protease inhibitor cocktail tablets (Roche). Protein concentration of lysates were determined using the Bradford assay and all samples were equalised for protein concentration. Proteins were separated by SOS/PAGE (4-12% Bis-Tris gels) and transferred onto nitrocellulose membranes for Western blotting. Antibodies were used to detect phospho-proteins and native proteins in lysates from control and treated cells
To determine whether inhibition of PDE4 activity had similar effects on endogenous phospho-HSP20 levels in heart cells, similar experiments were undertaken using neonatal cardiomyocytes (FIG. 2).

[3] = test system: Phospho-Ser16 HSP20 in HEKB2 cells; experiment: Ser16 phosphorylation of HSP20 in HEKB2 cells overexpressing HSP20 (Western blot); assay type: cell-based; conditions: HEKB2 cells transfected with wt HSP20, isoprenaline 1 μM, indicated times
Procedure: FIG. 1. The phosphorylation of HSP20 at Ser16 is modulated by PDE4 activity in HEKB2 cells. A, HEKB2 cells overexpressing HSP20 or HSP20 ser16-Ala mutant were treated with isoprenaline for indicated times. Cellular lysates were blotted for HSP20 and Phospho-Ser16 HSP20. B, HEKB2 cells overexpressing HSP20 were treated with isoprenaline for indicated times, Cellular lysates were blotted for HSP20 and Phospho-Ser16 HSP20. C, HEKB2 cells overexpressing HSP20 were treated with isoprenaline for indicated times following pre-treatment with the PDE4-specific inhibitor, rolipram. Cellular lysates were blotted for HSP20 and Phospho-Ser16 HSP20. D, Quantifications of data from FIGS. 1B and 1C (n=4). * Denotes significance at a level p<0.05 E, Lysate from untransfected HEKB2 cells was blotted for HSP20 and Phospho-Ser16 HSP20.
as §2
In contrast to this, when we transfected these cells with a phospho-null mutant form, Ser16Ala-Hsp20, then no such change was observed (FIG. 1A). In order to evaluate whether PDE4 activity played a role in regulating this phosphorylation process in Hsp20-transfected HEKB2 cells, cells that had either been pre-treated or not with the PDE4 selective inhibitor rolipram were subsequently challenged with isoprenaline (1 μM) (FIGS. 1B and C). […] Endogenous levels of phospho-HSP20 or HSP20 were not detectable in HEKB2 cells (FIG. 1E).

[4] = test system: neonatal cardiac myocytes; experiment: Cardiac myocyte size by xCELLigence impedance (normalised cell index); assay type: cell-based, rat; conditions: 24 hour isoprenaline 10 μM, 30 min pre-treatment with 10 μM peptide
Procedure: as §1
The E-Plate 96 (Roche) was used for these experiments^45. This comprises a 96-well plate with integral sensor electrode arrays to measure cell impedance. […] E-plate 96 is a 96-well microtiter plate with incorporated gold cell sensor arrays in the bottom, which allows impedance inside each well to be monitored and assayed in real time. […] The impedance measured between electrodes in an individual well depends on electrode geometry, ion concentration in the well and whether or not cells are attached to the electrodes^45. In the absence of cells, electrode impedance is mainly determined by the ion environment both at the electrode/solution interface and in the bulk solution. […] Small changes in impedance can also be recorded when cells temporally change shape or size in response to agonists^46,57. […]

[5] = target: B3; experiment: GST pull-down with purified recombinant proteins, immunoblot (data not shown)
Procedure: (§3) GST-PDE4 fusions proteins (500 μl of 2 μM) were mixed with 100 μl slurry of 50% (v/v) PBS-washed Glutathione beads for 2 h at 4° C. The beads were pelleted by centrifugation (14,000 g, 1 min) and washed twice with PBS containing 1% Triton X-100 before the addition of equal molar amounts of […] fusion protein in a 1 mL solution of PBS and Triton X-100 containing 5 mM dithiothreitol. After a 2 h incubation at 4° C. the beads were collected and washed three times with PBS and eluted in 100 μl of 2× Laemmli buffer. Eluates were resolved by SDS-PAGE, and the HSP20-His fusion proteins were detected by immunoblotting.
(§4) To evaluate further Hsp20 association with PDE4, we set out to determine whether they interacted directly. In order to do this we expressed Hsp20 and various PDE4 species in E. coli and purified them for use in pull-down assays. […] Additionally, we performed the converse experiment and first did pull-downs of HSP20, using its His tag, and then tested for co-purification of PDE4 species.

[6] = target: T1, HSP20, wild type, transfected into …; experiment: co-immunopurification with HSP20 from co-transfected HEKB2 cells, Western blot
Procedure: HEK293B2 cells are a stable cell line overexpressing the GFP-tagged β₂AR were cultured as previously described⁴⁸. HEK293B2 cells were transiently transfected with wild type HSP20 or a phosphorylation defective HSP20 (S16A) or a phosphorylation mimic HSP20 (S16D). […] Cell lysis, immunopurification and western blotting was done as described before by us in some detail⁴⁸. Briefly, HEK 293 cells were transiently transfected with wild-type HSP20 by using Polyfect Transfection Reagent (Qiagen). […] Control and treated transfected HEK 293 cells were then washed thrice with ice cold PBS (phosphate buffered saline) before cellular lysates were prepared. Cellular lysates were prepared in lysis buffer containing 25 mM Hepes, pH 7.5, 2.5 mM EDTA, 50 mM NaCl, 50 mM NaF, μM sodium pyrophosphate, 10% (v/v) glycerol, 1% (v/v) Triton X-100 and Complete™ EDTA-free protease inhibitor cocktail tablets (Roche). Protein concentration of lysates were determined using the Bradford assay and all samples were equalised for protein concentration. […] Antibodies were used to detect phospho-proteins and native proteins in lysates from control and treated cells
As before, we immunopurified HSP20 and blotted for the presence of transfected isoforms (FIG. 38).

GST alone = target: T2, GST alone (UniProt P08515 1-218 = GST); experiment: GST pull-down with purified recombinant proteins, immunoblot
T2 construct: Control of the pull-down
Procedure: as §3, §4

T2 sequence (P08515 whole entry): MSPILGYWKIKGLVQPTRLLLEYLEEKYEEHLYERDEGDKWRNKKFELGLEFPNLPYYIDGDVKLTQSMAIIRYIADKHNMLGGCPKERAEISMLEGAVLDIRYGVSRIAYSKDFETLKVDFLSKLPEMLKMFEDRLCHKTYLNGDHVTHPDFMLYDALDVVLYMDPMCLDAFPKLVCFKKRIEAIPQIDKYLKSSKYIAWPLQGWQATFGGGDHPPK

Molecule: CC(C)NCC(O)c1ccc(O)c(O)c1 (centres unmarked) [isoprenaline]
- increase in PDE4 activity associated with HSP20 immunoprecipitates vs untreated lysates (PDE4): 2.5 fold
- cell size (cross-sectional area) of cardiac myocytes [1]: marked increase in cell size
- endogenous phospho-HSP20 levels [2]: induced an increase in endogenous phospho-HSP20 levels
- phosphorylation of Hsp20 at Ser16 [3]: time dependent phosphorylation of Hsp20 at Ser16
- cell size (normalised cell index, impedance) of cardiac myocytes [4]: marked increase in cell size

Molecule: B1
- binding result [5]: binds

Molecule: B2
- binding result [6]: binds

Molecule: B3
- binding result (GST alone): no binding

Source: patent US20130209439A1, “INHIBITORS OF PDE4 BINDING TO HSP20” (THE UNIVERSITY COURT OF THE UNIVERSITY OF GLASGOW, priority 2010, published 2013)
